These results are taken from ChEMBL document CHEMBL5291721, “A preclinical secondary pharmacology resource illuminates target-adverse drug reaction associations of marketed drugs” (Nat Commun, 2023).

SMILES strings stand for the structures. Bounds are passed on as bounds.

For experiment [1], the target named is T1, Cholecystokinin receptor type A (Homo sapiens, UniProt P32238).
T1 sequence (P32238 whole entry): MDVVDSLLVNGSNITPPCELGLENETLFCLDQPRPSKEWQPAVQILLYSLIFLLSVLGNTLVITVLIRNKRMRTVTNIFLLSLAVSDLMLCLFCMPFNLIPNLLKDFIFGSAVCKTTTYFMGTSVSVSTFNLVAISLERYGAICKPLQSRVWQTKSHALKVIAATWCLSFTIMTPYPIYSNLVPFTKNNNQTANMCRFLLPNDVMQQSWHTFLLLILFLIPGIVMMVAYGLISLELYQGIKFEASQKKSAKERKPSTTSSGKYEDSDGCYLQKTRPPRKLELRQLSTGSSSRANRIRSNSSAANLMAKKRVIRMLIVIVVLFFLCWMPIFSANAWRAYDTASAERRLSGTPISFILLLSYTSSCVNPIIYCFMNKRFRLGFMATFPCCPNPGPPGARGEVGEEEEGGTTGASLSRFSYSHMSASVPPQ

A further experiment addresses Histamine H2 receptor (Homo sapiens, UniProt P25021). The class given is functional, cell-based.
The target in experiment [2] is T2, 5-hydroxytryptamine receptor 3A (Homo sapiens, UniProt P46098).
T2 sequence (P46098 whole entry): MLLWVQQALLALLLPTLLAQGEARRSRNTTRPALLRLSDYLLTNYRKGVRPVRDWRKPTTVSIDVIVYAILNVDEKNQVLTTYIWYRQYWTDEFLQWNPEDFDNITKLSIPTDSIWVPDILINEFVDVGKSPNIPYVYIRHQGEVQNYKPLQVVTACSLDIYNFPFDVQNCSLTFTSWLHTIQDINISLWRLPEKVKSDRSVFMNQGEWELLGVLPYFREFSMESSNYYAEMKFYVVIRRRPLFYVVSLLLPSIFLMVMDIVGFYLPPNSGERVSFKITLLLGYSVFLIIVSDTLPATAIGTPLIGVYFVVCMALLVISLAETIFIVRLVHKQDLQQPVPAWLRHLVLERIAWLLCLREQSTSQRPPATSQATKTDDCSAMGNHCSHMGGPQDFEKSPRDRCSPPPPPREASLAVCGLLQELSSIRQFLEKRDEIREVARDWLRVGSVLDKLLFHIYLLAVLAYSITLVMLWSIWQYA
The class given is functional.

Experiment [3] deals with 3',5'-cyclic-AMP phosphodiesterase 4D (Homo sapiens, UniProt Q08499). The class given is functional.
A further experiment deals with T3, Thromboxane A2 receptor (Homo sapiens, UniProt P21731).
T3 sequence (P21731 whole entry): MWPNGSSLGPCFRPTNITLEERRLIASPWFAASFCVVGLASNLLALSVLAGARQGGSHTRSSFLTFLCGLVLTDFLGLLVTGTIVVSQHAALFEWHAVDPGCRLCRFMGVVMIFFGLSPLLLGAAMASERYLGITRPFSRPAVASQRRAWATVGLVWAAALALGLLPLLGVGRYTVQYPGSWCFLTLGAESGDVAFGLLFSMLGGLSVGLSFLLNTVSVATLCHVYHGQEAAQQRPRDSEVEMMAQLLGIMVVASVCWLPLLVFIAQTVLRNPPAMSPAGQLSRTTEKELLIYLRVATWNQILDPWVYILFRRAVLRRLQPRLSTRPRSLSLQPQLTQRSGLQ

Experiment [4] addresses Sodium-dependent serotonin transporter (Homo sapiens, UniProt P31645).
Experiment [5] concerns the target T4, Alpha-1A adrenergic receptor (Homo sapiens, UniProt P35348).
T4 sequence (P35348 whole entry): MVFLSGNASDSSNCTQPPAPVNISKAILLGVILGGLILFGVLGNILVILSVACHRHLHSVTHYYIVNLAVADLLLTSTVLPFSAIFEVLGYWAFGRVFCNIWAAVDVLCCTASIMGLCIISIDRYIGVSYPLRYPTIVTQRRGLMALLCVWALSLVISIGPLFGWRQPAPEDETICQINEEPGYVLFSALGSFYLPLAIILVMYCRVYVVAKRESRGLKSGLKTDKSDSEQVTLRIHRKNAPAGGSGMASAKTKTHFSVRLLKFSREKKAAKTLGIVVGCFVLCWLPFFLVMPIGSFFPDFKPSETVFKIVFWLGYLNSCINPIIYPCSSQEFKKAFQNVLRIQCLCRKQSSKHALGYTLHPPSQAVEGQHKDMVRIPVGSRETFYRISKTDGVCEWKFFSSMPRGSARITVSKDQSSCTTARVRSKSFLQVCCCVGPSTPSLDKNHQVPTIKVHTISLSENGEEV
The class given is functional, cell-based.
Further: assay procedure not described here.

Chain of Histamine H2 receptor (P25021 whole entry): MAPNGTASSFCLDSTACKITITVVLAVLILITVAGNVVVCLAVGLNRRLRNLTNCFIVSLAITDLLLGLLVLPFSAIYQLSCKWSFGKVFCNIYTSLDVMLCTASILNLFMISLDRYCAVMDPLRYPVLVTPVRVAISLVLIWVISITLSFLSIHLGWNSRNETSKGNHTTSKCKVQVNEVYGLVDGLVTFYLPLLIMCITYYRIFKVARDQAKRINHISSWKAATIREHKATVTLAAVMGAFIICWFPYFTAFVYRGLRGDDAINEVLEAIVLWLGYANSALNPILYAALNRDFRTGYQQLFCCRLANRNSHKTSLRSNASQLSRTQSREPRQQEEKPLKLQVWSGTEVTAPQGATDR
Chain of 3',5'-cyclic-AMP phosphodiesterase 4D (Q08499 whole entry): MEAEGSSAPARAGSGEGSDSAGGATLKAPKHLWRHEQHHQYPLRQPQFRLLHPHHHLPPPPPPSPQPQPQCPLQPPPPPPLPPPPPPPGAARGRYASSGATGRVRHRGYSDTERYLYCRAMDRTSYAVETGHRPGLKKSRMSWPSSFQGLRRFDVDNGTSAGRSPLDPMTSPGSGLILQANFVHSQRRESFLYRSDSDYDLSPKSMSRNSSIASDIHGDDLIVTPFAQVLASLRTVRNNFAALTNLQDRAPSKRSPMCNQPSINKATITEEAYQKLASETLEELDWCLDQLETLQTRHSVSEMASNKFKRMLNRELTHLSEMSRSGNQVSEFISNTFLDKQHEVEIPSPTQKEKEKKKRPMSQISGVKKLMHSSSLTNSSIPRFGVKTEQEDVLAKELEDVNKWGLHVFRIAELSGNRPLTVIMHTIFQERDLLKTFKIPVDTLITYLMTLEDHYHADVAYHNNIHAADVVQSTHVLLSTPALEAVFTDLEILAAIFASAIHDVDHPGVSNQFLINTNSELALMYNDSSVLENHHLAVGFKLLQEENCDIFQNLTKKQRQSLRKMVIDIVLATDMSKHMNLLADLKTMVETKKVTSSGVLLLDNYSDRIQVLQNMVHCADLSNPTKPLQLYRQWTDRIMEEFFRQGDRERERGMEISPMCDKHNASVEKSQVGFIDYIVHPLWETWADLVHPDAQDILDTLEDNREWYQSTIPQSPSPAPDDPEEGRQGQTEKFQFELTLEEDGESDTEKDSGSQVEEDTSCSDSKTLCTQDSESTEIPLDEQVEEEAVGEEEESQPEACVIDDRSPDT
Chain of Sodium-dependent serotonin transporter (P31645 whole entry): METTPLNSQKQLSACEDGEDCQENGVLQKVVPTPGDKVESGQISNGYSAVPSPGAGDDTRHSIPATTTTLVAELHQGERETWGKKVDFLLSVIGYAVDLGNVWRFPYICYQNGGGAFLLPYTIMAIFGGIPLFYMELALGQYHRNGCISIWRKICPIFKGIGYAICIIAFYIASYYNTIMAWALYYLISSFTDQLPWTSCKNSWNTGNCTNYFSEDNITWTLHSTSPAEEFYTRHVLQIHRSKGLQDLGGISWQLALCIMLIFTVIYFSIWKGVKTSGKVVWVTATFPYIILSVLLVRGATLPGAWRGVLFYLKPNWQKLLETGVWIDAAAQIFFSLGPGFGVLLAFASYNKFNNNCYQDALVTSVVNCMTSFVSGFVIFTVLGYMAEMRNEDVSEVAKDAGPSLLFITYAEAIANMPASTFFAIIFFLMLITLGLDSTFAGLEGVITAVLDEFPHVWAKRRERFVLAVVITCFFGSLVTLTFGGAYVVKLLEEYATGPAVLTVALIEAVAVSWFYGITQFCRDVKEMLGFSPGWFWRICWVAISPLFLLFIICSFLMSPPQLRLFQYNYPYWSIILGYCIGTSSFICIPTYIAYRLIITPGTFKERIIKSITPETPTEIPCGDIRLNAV

As a reminder, the AC50 is the concentration at which the activity in the assay is half-maximal. The low end stands for activity at low concentration, the high end for activity only at high concentration. Take `COc1ccc(-c2ccc3cc(C(=O)O)ccc3c2)cc1C12CC3CC(CC(C3)C1)C2`: the AC50 (in experiment [1]; on Histamine H2 receptor; in experiment [2]; in experiment [3]; at Thromboxane A2 receptor; in experiment [4]) was greater than 30 µM each time. In addition, in experiment [5], the AC50 was greater than 30 µM.

In the case of `CCOC(=O)[C@H](CCc1ccccc1)N[C@@H](C)C(=O)N1C(=O)N(C)C[C@H]1C(=O)O`, the AC50 (in experiment [1]; on Histamine H2 receptor; in experiment [2]; in experiment [3]; on Thromboxane A2 receptor; in experiment [4]) was greater than 30 µM in each case. The compound further registered a half-maximal activity concentration (AC50) in experiment [5] greater than 30 µM.

With `CC(C)(C)C(=O)Oc1ccc(S(=O)(=O)Nc2ccccc2C(=O)NCC(=O)O)cc1`, the AC50 was greater than 30 µM in experiment [1]; greater than 30 µM on Histamine H2 receptor; greater than 30 µM in experiment [2]; greater than 30 µM in experiment [3]; greater than 30 µM on Thromboxane A2 receptor; greater than 10 µM in experiment [4].

Take `O=C(O)CCCCCCNC1c2ccccc2CCc2ccccc21` [AMINEPTINE]: the AC50 (in experiment [1]; at Histamine H2 receptor; in experiment [2]; in experiment [3]; on Thromboxane A2 receptor; in experiment [4]) was greater than 30 µM each time. In experiment [5], the AC50 is greater than 30 µM.

For the compound `CCOC(=O)OC(C)OC1=C(C(=O)Nc2ccccn2)N(C)S(=O)(=O)c2ccccc21` (stereo not drawn) [AMPIROXICAM], the AC50 (in experiment [1]; on Histamine H2 receptor; in experiment [2]; in experiment [3]; at Thromboxane A2 receptor; in experiment [5]) was greater than 30 µM throughout.

Consider `CO/N=C(\C(=O)N[C@@H]1C(=O)N2C(C(=O)O)=C(CSc3nnnn3C)CS[C@H]12)c1csc(N)n1` [CEFMENOXIME], for which the AC50 (in experiment [1]; on Histamine H2 receptor; in experiment [3]; in experiment [4]; in experiment [5]) was greater than 30 µM throughout.

With `CCN1CCN(C(=O)N[C@@H](C(=O)N[C@@H]2C(=O)N3C(C(=O)O)=C(CSc4nnnn4C)CS[C@H]23)c2ccc(O)cc2)C(=O)C1=O` [CEFOPERAZONE], the AC50 (in experiment [1]; on Histamine H2 receptor; in experiment [2]; in experiment [3]; in experiment [4]) was greater than 30 µM each time.

As to `CC(=O)OCC(=O)[C@@]12N=C(C)O[C@@H]1C[C@H]1[C@@H]3CCC4=CC(=O)C=C[C@]4(C)[C@H]3[C@@H](O)C[C@@]12C` [DEFLAZACORT], the AC50 (in experiment [1]; on Histamine H2 receptor; in experiment [2]; in experiment [3]; on Thromboxane A2 receptor; in experiment [4]) was greater than 30 µM in each case. Moreover, the AC50 in experiment [5] is greater than 30 µM.

For `Cn1c(=O)c2c(ncn2CC2OCCO2)n(C)c1=O` [DOXOFYLLINE], the AC50 (in experiment [1]; on Histamine H2 receptor; in experiment [2]; in experiment [3]; on Thromboxane A2 receptor; in experiment [5]) was greater than 30 µM in each case.

On to `CCCCCCOc1ccccc1C(N)=O` [EXALAMIDE], for which the AC50 (in experiment [1]; on Histamine H2 receptor; in experiment [2]; in experiment [3]; on Thromboxane A2 receptor; in experiment [4]) was greater than 30 µM each time. Besides, in experiment [5], the AC50 is greater than 30 µM.

In the case of `COc1ccc(CCN(C)CCCC(C#N)(c2cc(OC)c(OC)c(OC)c2)C(C)C)cc1OC` (stereo not drawn) [GALLOPAMIL], the half-maximal activity concentration (AC50) in experiment [1] is greater than 30 µM; on Histamine H2 receptor it was greater than 30 µM; in experiment [2] it was greater than 30 µM; in experiment [3], 9.2 µM; on Thromboxane A2 receptor, greater than 30 µM; in experiment [4], 3 µM. In experiment [5], this compound had an AC50 greater than 30 µM.

In the case of `CC(C)C(=O)c1c(C(C)C)nn2ccccc12` [IBUDILAST], the AC50 in experiment [1] was greater than 30 µM; on Histamine H2 receptor, greater than 30 µM; in experiment [2] it was greater than 30 µM; in experiment [3], 0.4 µM; at Thromboxane A2 receptor it was greater than 30 µM; in experiment [4], greater than 30 µM. This compound also displayed an AC50 in experiment [5] greater than 30 µM.

For the compound `CCC(C(=O)O)c1ccc(N2Cc3ccccc3C2=O)cc1` (stereo not drawn) [INDOBUFEN], the AC50 (in experiment [1]; at Histamine H2 receptor; in experiment [2]; in experiment [3]; on Thromboxane A2 receptor; in experiment [4]) was greater than 30 µM each time. Further, the activity in experiment [5] was half-maximal at 5.3 µM (AC50).

On to `Nc1nc(N)nc(-c2cc(Cl)ccc2Cl)n1` [IRSOGLADINE], for which the AC50 in experiment [1] is greater than 30 µM; at Histamine H2 receptor it was greater than 30 µM; in experiment [3], 21.4 µM; on Thromboxane A2 receptor it was greater than 30 µM; in experiment [5] it was greater than 30 µM.

As to `CNC(C)CCC=C(C)C` (stereo not drawn) [ISOMETHEPTENE], the AC50 (in experiment [1]; on Thromboxane A2 receptor; in experiment [4]) was greater than 30 µM in each case.

With `CC(C)OC(=O)CCC/C=C\C[C@@H]1[C@@H](CC[C@@H](O)CCc2ccccc2)[C@H](O)C[C@@H]1O` [LATANOPROST], the AC50 (in experiment [1]; at Histamine H2 receptor; in experiment [2]; in experiment [3]; in experiment [4]) was greater than 30 µM throughout.

On to `CN1C(=O)C(O)N=C(c2ccccc2Cl)c2cc(Cl)ccc21` (stereo not drawn) [LORMETAZEPAM], for which the AC50 was greater than 30 µM in experiment [1]; greater than 30 µM at Histamine H2 receptor; greater than 30 µM in experiment [2]; 5.6 µM in experiment [3]; greater than 30 µM at Thromboxane A2 receptor; greater than 30 µM in experiment [4]. The same compound came in with an AC50 in experiment [5] greater than 30 µM.

`CCC1(CC)C(=O)NCC(C)C1=O` (stereo not drawn) [METHYPRYLON]: the AC50 (in experiment [1]; on Histamine H2 receptor; in experiment [2]; in experiment [3]; in experiment [4]) was greater than 30 µM each time.

Take `O=C(O)/C=C/c1ccc(Cn2ccnc2)cc1` [OZAGREL]: the AC50 (in experiment [1]; at Histamine H2 receptor; in experiment [2]; in experiment [3]; at Thromboxane A2 receptor; in experiment [4]) was greater than 30 µM each time.

As for `CCN(CC)C(=O)N[C@H]1C[C@@H]2c3cccc4[nH]cc(c34)C[C@H]2N(C)C1` [TERGURIDE], the concentration at half-maximal activity (AC50) in experiment [1] is greater than 30 µM; on Histamine H2 receptor, 15 µM; in experiment [2] it was greater than 30 µM; in experiment [3], greater than 30 µM; in experiment [4] it was greater than 30 µM; in experiment [5], 1.1 µM.

Take `CC(=O)O[C@H]1C[C@@H]2CC[C@@H]3[C@H](CC[C@@]4(C)[C@H]3C[C@H]([N+]3(C)CCCCC3)[C@@H]4OC(C)=O)[C@@]2(C)C[C@@H]1N1CCCCC1` [VECURONIUM]: the AC50 (in experiment [1]; at Histamine H2 receptor; in experiment [2]; in experiment [3]; on Thromboxane A2 receptor; in experiment [5]) was greater than 30 µM each time.

Regarding `O=C(NCCNCC(O)COc1ccc(O)cc1)N1CCOCC1` (stereo not drawn) [XAMOTEROL], the AC50 (in experiment [1]; on Histamine H2 receptor; in experiment [2]; in experiment [3]; at Thromboxane A2 receptor; in experiment [4]) was greater than 30 µM each time.
